Results published in patent US5656622A, “15,15-dialkyl-substituted derivatives of estradiol” (Schering Aktiengesellschaft, priority 1993, dated 1997).

Experiments:
[1] = test system: 17β-hydroxysteroid dehydrogenase from human placenta; test: stability against 17β-hydroxysteroid dehydrogenase, incubation with placenta microsomes; assay type: in vitro ADME; conditions: NADP 0.5 mmol
Procedure: To determine the stability of estradiol (A) itself as well as of a compound according to the invention, i.e., 15,15-dimethyl-estra-1,3,5(10)-triene-3,17β-diol (B), against 17β-hydroxysteroid dehydrogenase from human placenta, the test substances are incubated with placenta microsomes in the presence of NADP (nicotinamide-adenine-dinucleotide phosphate; 0.5 mmol).
The steroids (initial substrate and product) are extracted and separated by HPLC. For evaluation, the quotients are formed from the electronically integrated peak areas of the corresponding reaction product (namely the assumed 17-keto compound) and the initial substance and plotted against the incubation time (FIG. 1).

estrogen receptor = estrogen receptor binding test; conditions: tissue from rat uteri, 3H-estradiol as reference substance
Procedure: The estrogenic effectiveness of the compounds according to the invention can be shown by the results of the estrogen receptor binding test. In this known in vitro test, tissue from rat uteri is prepared and radioactively-labeled ^3 H-estradiol is used as reference substance. The compound according to the invention 15,15-dimethyl-estra-1,3,5(10)-triene-3,17β-diol accordingly has a competition factor K of 1.5.

For `CC1(C)C[C@H](O)[C@@]2(C)CC[C@@H]3c4ccc(O)cc4CC[C@H]3[C@H]12` [15,15-dimethylestra-1,3,5(10)-triene-3,17β-diol], the “conversion to the 17-keto compound by 17β-hydroxysteroid dehydrogenase (quotient of HPLC peak areas product/initial substance against incubation time, FIG. 1)” value [1] was “only moderate substrate” and the “competition factor K” value (estrogen receptor) was 1.5.
